Experimental data taken from the supplement of paper PMC10307832.

Tests used:
Test in all cases: relative viability (nuclei count vs DMSO), 5 days (fraction); higher = more cells survive
BEN = system: BEN
Summary of the method: (§1)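 Relative viability equals treated-well nuclei counts divided by vehicle-well nuclei counts. Counts came from 4× images of lung cancer cell lines grown in 1536-well plates for 5 days after pin-tool dosing on the day after seeding. Dosing used one drug alone or a fixed anchor-drug dose plus five library-drug doses (not always all listed) in √10 steps, and values are medians of duplicate plates.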

NCI-H1944 = system: NCI-H1944
Summary of the method: as §1

SK-MES-1 = system: SK-MES-1
Summary of the method: as §1

ChaGo-K-1 = system: ChaGo-K-1
Summary of the method: as §1

PC-3 [JPC-3] = system: PC-3 [JPC-3]
Summary of the method: as §1

NCI-H2342 = system: NCI-H2342
Summary of the method: as §1

NCI-H650 = system: NCI-H650
Summary of the method: as §1

NCI-H358 = system: NCI-H358
Summary of the method: as §1

UMC-11 = system: UMC-11
Summary of the method: as §1

NCI-H596 = system: NCI-H596
Summary of the method: as §1

NCI-H661 = system: NCI-H661
Summary of the method: as §1

LXF-289 = system: LXF-289
Summary of the method: as §1

NCI-H2087 = system: NCI-H2087
Summary of the method: as §1

HCC-15 = system: HCC-15
Summary of the method: as §1

H3255 = system: H3255
Summary of the method: as §1

NCI-H838 = system: NCI-H838
Summary of the method: as §1

LU99A = system: LU99A
Summary of the method: as §1

LK-2 = system: LK-2
Summary of the method: as §1

LC-2-ad = system: LC-2-ad
Summary of the method: as §1

NCI-H1666 = system: NCI-H1666
Summary of the method: as §1

LCLC-97TM1 = system: LCLC-97TM1
Summary of the method: as §1

HCC-78 = system: HCC-78
Summary of the method: as §1

NCI-H322M = system: NCI-H322M
Summary of the method: as §1

NCI-H1651 = system: NCI-H1651
Summary of the method: as §1

## CC(C)Oc1cc(Nc2nc(N[C@@H](C)c3ccc(F)cn3)ncc2Cl)n[nH]1 [AZ23] + O=C(CCCCCCC(=O)Nc1ccccc1)NO [Vorinostat] (partner 1 µM)
BEN; first compound 0.01 µM
  relative viability: 0.599
BEN; first compound 0.03162 µM
  relative viability: 0.659
BEN; first compound 0.3162 µM
  relative viability: 0.597
NCI-H1944; first compound 0.01 µM
  relative viability: 0.409
NCI-H1944; first compound 0.03162 µM
  relative viability: 0.625
NCI-H1944; first compound 0.3162 µM
  relative viability: 0.631
SK-MES-1; first compound 0.03162 µM
  relative viability: 1.22
SK-MES-1; first compound 0.3162 µM
  relative viability: 1.2
ChaGo-K-1; first compound 0.01 µM
  relative viability: 0.936
ChaGo-K-1; first compound 0.03162 µM
  relative viability: 0.798
ChaGo-K-1; first compound 0.3162 µM
  relative viability: 0.82
PC-3 [JPC-3]; first compound 0.01 µM
  relative viability: 0.721
PC-3 [JPC-3]; first compound 0.03162 µM
  relative viability: 0.867
PC-3 [JPC-3]; first compound 0.3162 µM
  relative viability: 0.826
NCI-H2342; first compound 0.01 µM
  relative viability: 0.619
NCI-H2342; first compound 0.03162 µM
  relative viability: 0.74
NCI-H2342; first compound 0.3162 µM
  relative viability: 0.686
NCI-H650; first compound 0.01 µM
  relative viability: 0.411
NCI-H650; first compound 0.03162 µM
  relative viability: 0.583
NCI-H650; first compound 0.3162 µM
  relative viability: 0.452
NCI-H358; first compound 0.01 µM
  relative viability: 0.631
NCI-H358; first compound 0.03162 µM
  relative viability: 0.718
NCI-H358; first compound 0.3162 µM
  relative viability: 0.758
UMC-11; first compound 0.01 µM
  relative viability: 0.281
UMC-11; first compound 0.03162 µM
  relative viability: 0.384
UMC-11; first compound 0.3162 µM
  relative viability: 0.357
NCI-H596; first compound 0.01 µM
  relative viability: 0.523
NCI-H596; first compound 0.03162 µM
  relative viability: 0.622
NCI-H596; first compound 0.3162 µM
  relative viability: 0.582
NCI-H661; first compound 0.01 µM
  relative viability: 0.814
NCI-H661; first compound 0.03162 µM
  relative viability: 0.769
NCI-H661; first compound 0.3162 µM
  relative viability: 0.87
LXF-289; first compound 0.01 µM
  relative viability: 0.949
LXF-289; first compound 0.03162 µM
  relative viability: 0.776
LXF-289; first compound 0.3162 µM
  relative viability: 0.737
NCI-H2087; first compound 0.01 µM
  relative viability: 0.969
NCI-H2087; first compound 0.03162 µM
  relative viability: 0.995
NCI-H2087; first compound 0.3162 µM
  relative viability: 0.668
HCC-15; first compound 0.01 µM
  relative viability: 0.921
HCC-15; first compound 0.03162 µM
  relative viability: 0.963
HCC-15; first compound 0.3162 µM
  relative viability: 0.788
H3255; first compound 0.01 µM
  relative viability: 0.737
H3255; first compound 0.03162 µM
  relative viability: 0.791
H3255; first compound 0.3162 µM
  relative viability: 0.867
NCI-H838; first compound 0.01 µM
  relative viability: 0.768
NCI-H838; first compound 0.03162 µM
  relative viability: 0.687
NCI-H838; first compound 0.3162 µM
  relative viability: 0.626
LU99A; first compound 0.01 µM
  relative viability: 0.516
LU99A; first compound 0.03162 µM
  relative viability: 0.6
LU99A; first compound 0.3162 µM
  relative viability: 0.493
LK-2; first compound 0.01 µM
  relative viability: 0.22
LK-2; first compound 0.03162 µM
  relative viability: 0.216
LK-2; first compound 0.3162 µM
  relative viability: 0.3
LC-2-ad; first compound 0.01 µM
  relative viability: 0.86
LC-2-ad; first compound 0.03162 µM
  relative viability: 0.789
LC-2-ad; first compound 0.3162 µM
  relative viability: 0.716
NCI-H1666; first compound 0.01 µM
  relative viability: 0.859
NCI-H1666; first compound 0.03162 µM
  relative viability: 0.977
NCI-H1666; first compound 0.3162 µM
  relative viability: 1.03
LCLC-97TM1; first compound 0.01 µM
  relative viability: 0.582
LCLC-97TM1; first compound 0.03162 µM
  relative viability: 0.885
LCLC-97TM1; first compound 0.3162 µM
  relative viability: 0.396
HCC-78; first compound 0.01 µM
  relative viability: 0.432
HCC-78; first compound 0.03162 µM
  relative viability: 0.401
HCC-78; first compound 0.3162 µM
  relative viability: 0.341
NCI-H322M; first compound 0.01 µM
  relative viability: 0.674
NCI-H322M; first compound 0.03162 µM
  relative viability: 0.881
NCI-H322M; first compound 0.3162 µM
  relative viability: 0.93
NCI-H1651; first compound 0.01 µM
  relative viability: 0.524
NCI-H1651; first compound 0.03162 µM
  relative viability: 0.545
NCI-H1651; first compound 0.3162 µM
  relative viability: 0.584

## CC(C)Oc1cc(Nc2nc(N[C@@H](C)c3ccc(F)cn3)ncc2Cl)n[nH]1 [AZ23] + O=C(c1cc(Cc2n[nH]c(=O)c3ccccc23)ccc1F)N1CCN(C(=O)C2CC2)CC1 [Olaparib] (partner 8 µM)
BEN; first compound 0.01 µM
  relative viability: 1.03
BEN; first compound 0.03162 µM
  relative viability: 1.24
BEN; first compound 0.3162 µM
  relative viability: 1.16
NCI-H1944; first compound 0.01 µM
  relative viability: 0.443
NCI-H1944; first compound 0.03162 µM
  relative viability: 0.472
NCI-H1944; first compound 0.3162 µM
  relative viability: 0.448
SK-MES-1; first compound 0.03162 µM
  relative viability: 0.833
SK-MES-1; first compound 0.3162 µM
  relative viability: 0.764
ChaGo-K-1; first compound 0.01 µM
  relative viability: 0.519
ChaGo-K-1; first compound 0.03162 µM
  relative viability: 0.407
ChaGo-K-1; first compound 0.3162 µM
  relative viability: 0.406
PC-3 [JPC-3]; first compound 0.01 µM
  relative viability: 1.35
PC-3 [JPC-3]; first compound 0.03162 µM
  relative viability: 1.41
PC-3 [JPC-3]; first compound 0.3162 µM
  relative viability: 1.17
NCI-H2342; first compound 0.01 µM
  relative viability: 0.413
NCI-H2342; first compound 0.03162 µM
  relative viability: 0.473
NCI-H2342; first compound 0.3162 µM
  relative viability: 0.399
NCI-H650; first compound 0.01 µM
  relative viability: 0.483
NCI-H650; first compound 0.03162 µM
  relative viability: 0.454
NCI-H650; first compound 0.3162 µM
  relative viability: 0.357
NCI-H358; first compound 0.01 µM
  relative viability: 0.72
NCI-H358; first compound 0.03162 µM
  relative viability: 0.667
NCI-H358; first compound 0.3162 µM
  relative viability: 0.664
UMC-11; first compound 0.01 µM
  relative viability: 0.392
UMC-11; first compound 0.03162 µM
  relative viability: 0.422
UMC-11; first compound 0.3162 µM
  relative viability: 0.372
NCI-H596; first compound 0.01 µM
  relative viability: 0.603
NCI-H596; first compound 0.03162 µM
  relative viability: 0.749
NCI-H596; first compound 0.3162 µM
  relative viability: 0.665
NCI-H661; first compound 0.01 µM
  relative viability: 0.823
NCI-H661; first compound 0.03162 µM
  relative viability: 0.792
NCI-H661; first compound 0.3162 µM
  relative viability: 0.738
LXF-289; first compound 0.01 µM
  relative viability: 1.39
LXF-289; first compound 0.03162 µM
  relative viability: 1.14
LXF-289; first compound 0.3162 µM
  relative viability: 1.1
NCI-H2087; first compound 0.01 µM
  relative viability: 0.819
NCI-H2087; first compound 0.03162 µM
  relative viability: 0.73
NCI-H2087; first compound 0.3162 µM
  relative viability: 0.642
HCC-15; first compound 0.01 µM
  relative viability: 1.02
HCC-15; first compound 0.03162 µM
  relative viability: 0.698
HCC-15; first compound 0.3162 µM
  relative viability: 0.747
H3255; first compound 0.01 µM
  relative viability: 0.524
H3255; first compound 0.03162 µM
  relative viability: 0.581
H3255; first compound 0.3162 µM
  relative viability: 0.542
NCI-H838; first compound 0.01 µM
  relative viability: 0.905
NCI-H838; first compound 0.03162 µM
  relative viability: 0.964
NCI-H838; first compound 0.3162 µM
  relative viability: 0.721
LU99A; first compound 0.01 µM
  relative viability: 0.233
LU99A; first compound 0.03162 µM
  relative viability: 0.237
LU99A; first compound 0.3162 µM
  relative viability: 0.328
LK-2; first compound 0.01 µM
  relative viability: 0.717
LK-2; first compound 0.03162 µM
  relative viability: 0.825
LK-2; first compound 0.3162 µM
  relative viability: 0.68
LC-2-ad; first compound 0.01 µM
  relative viability: 0.811
LC-2-ad; first compound 0.03162 µM
  relative viability: 0.772
LC-2-ad; first compound 0.3162 µM
  relative viability: 0.824
NCI-H1666; first compound 0.01 µM
  relative viability: 0.718
NCI-H1666; first compound 0.03162 µM
  relative viability: 0.699
NCI-H1666; first compound 0.3162 µM
  relative viability: 0.759
LCLC-97TM1; first compound 0.01 µM
  relative viability: 0.299
LCLC-97TM1; first compound 0.03162 µM
  relative viability: 0.526
LCLC-97TM1; first compound 0.3162 µM
  relative viability: 0.416
HCC-78; first compound 0.01 µM
  relative viability: 0.623
HCC-78; first compound 0.03162 µM
  relative viability: 0.834
HCC-78; first compound 0.3162 µM
  relative viability: 0.669
NCI-H322M; first compound 0.01 µM
  relative viability: 0.564
NCI-H322M; first compound 0.03162 µM
  relative viability: 0.749
NCI-H322M; first compound 0.3162 µM
  relative viability: 0.741
NCI-H1651; first compound 0.01 µM
  relative viability: 0.182
NCI-H1651; first compound 0.03162 µM
  relative viability: 0.166
NCI-H1651; first compound 0.3162 µM
  relative viability: 0.19
